ChEMBL document CHEMBL1201862, “PubChem BioAssay data set” (2004)
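In this assay, cells in 96-well plates receive the compound at five concentrations for 48 hours. Endpoints are linearly interpolated between the surrounding concentrations. GI50 is the concentration that inhibits growth by half.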 The source made the active and inactive calls. No stated cut-off is given here; in the data, active = GI50 up to about 1.1 µM and inactive = higher.

Tests used:
Assay in all cases: inhibition of tumour cell growth, NCI panel, 48 h
ACHN = system: ACHN
HCT-116 = system: HCT-116
HL-60 = system: HL-60
HT-29 = system: HT-29
Hs-578T = system: Hs-578T
IGROV-1 = system: IGROV-1
LOX IMVI = system: LOX IMVI
MCF7 = system: MCF7
NCI-H23 = system: NCI-H23
NCI/ADR-RES = system: NCI/ADR-RES
OVCAR-3 = system: OVCAR-3
OVCAR-4 = system: OVCAR-4
OVCAR-5 = system: OVCAR-5
OVCAR-8 = system: OVCAR-8
SK-OV-3 = system: SK-OV-3
SNB-19 = system: SNB-19
SR = system: SR
T47D = system: T47D
UACC-62 = system: UACC-62
SK-MEL-2 = system: SK-MEL-2

SMILES | GI50 (ACHN) | GI50 (HCT-116) | GI50 (HL-60) | GI50 (HT-29) | GI50 (Hs-578T) | GI50 (IGROV-1) | GI50 (LOX IMVI) | GI50 (MCF7) | GI50 (NCI-H23) | GI50 (NCI/ADR-RES) | GI50 (OVCAR-3) | GI50 (OVCAR-4) | GI50 (OVCAR-5) | GI50 (OVCAR-8) | GI50 (SK-OV-3) | GI50 (SNB-19) | GI50 (SR) | GI50 (T47D) | GI50 (UACC-62) | GI50 (SK-MEL-2)
CCc1nc(Cl)nc(Cl)c1Cl | 0.34 µM (active) | 0.948 µM (active) | 1.36 µM (inactive) | 0.394 µM (active) | 2.6 µM (inactive) | 3.72 µM (inactive) | 0.0826 µM (active) | 0.403 µM (active) | 1.08 µM (active) | 2.52 µM (inactive) | 0.535 µM (active) | 0.553 µM (active) | 0.7 µM (active) | 1.04 µM (active) | 6.41 µM (inactive) | 3.59 µM (inactive) | 0.416 µM (active) | 5.55 µM (inactive) | 6.44 µM (inactive) | 
COc1ccc(-n2c(-c3ccccc3)cc(-c3cccs3)c2-c2cccs2)cc1 | > 100 µM (inactive) | > 100 µM (inactive) |  | > 100 µM (inactive) | > 100 µM (inactive) | > 100 µM (inactive) | > 100 µM (inactive) | > 100 µM (inactive) | 6.73 µM (inactive) | > 100 µM (inactive) | > 100 µM (inactive) | 56.6 µM (inactive) | > 100 µM (inactive) | > 100 µM (inactive) | > 100 µM (inactive) |  | > 100 µM (inactive) | 26.5 µM (inactive) | > 100 µM (inactive) | 
Cc1ccc(C2=NOC(=O)[C@@H]3CCCC[C@@H]23)cc1 | > 100 µM (inactive) | > 100 µM (inactive) | > 100 µM (inactive) | > 100 µM (inactive) | > 100 µM (inactive) | > 100 µM (inactive) | > 100 µM (inactive) | > 100 µM (inactive) | > 100 µM (inactive) | > 100 µM (inactive) | > 100 µM (inactive) | > 100 µM (inactive) | > 100 µM (inactive) | > 100 µM (inactive) | > 100 µM (inactive) | > 100 µM (inactive) | > 100 µM (inactive) | 76.4 µM (inactive) | > 100 µM (inactive) | 
O=[N+]([O-])c1ccc(NS(=O)(=O)C(F)(F)F)cc1 | > 100 µM (inactive) | > 100 µM (inactive) | > 100 µM (inactive) | > 100 µM (inactive) | > 100 µM (inactive) | 85.1 µM (inactive) | > 100 µM (inactive) | > 100 µM (inactive) | > 100 µM (inactive) | > 100 µM (inactive) | > 100 µM (inactive) | > 100 µM (inactive) | > 100 µM (inactive) | > 100 µM (inactive) | > 100 µM (inactive) | > 100 µM (inactive) |  | > 100 µM (inactive) | > 100 µM (inactive) | > 100 µM (inactive)
CC1(C)C(C#N)C1C1=C(N2CCOCC2)[C@]2(C)C(OC(=O)c3ccccc3)CC[C@@H]2C1 (stereo partly drawn) | > 100 µM (inactive) | 33.7 µM (inactive) |  | 50.1 µM (inactive) | > 100 µM (inactive) | > 100 µM (inactive) |  | 72.6 µM (inactive) | > 100 µM (inactive) | > 100 µM (inactive) | > 100 µM (inactive) | > 100 µM (inactive) | > 100 µM (inactive) | > 100 µM (inactive) | > 100 µM (inactive) | > 100 µM (inactive) | 61.5 µM (inactive) | 35.5 µM (inactive) | > 100 µM (inactive) | 
O=C1c2cc(Cl)ccc2-n2c(noc2=O)C2CSCN12 (stereo not drawn) | > 100 µM (inactive) | > 100 µM (inactive) |  | > 100 µM (inactive) | > 100 µM (inactive) | > 100 µM (inactive) | > 100 µM (inactive) | > 100 µM (inactive) |  | > 100 µM (inactive) | > 100 µM (inactive) | > 100 µM (inactive) | > 100 µM (inactive) | > 100 µM (inactive) | > 100 µM (inactive) | > 100 µM (inactive) | > 100 µM (inactive) | > 100 µM (inactive) | > 100 µM (inactive) | > 100 µM (inactive)
COc1ccc2c(-c3ccc(O)cc3)c(Oc3ccc(Cl)cc3)c(=O)oc2c1 | 8.11 µM (inactive) | 6.46 µM (inactive) |  |  | 5.62 µM (inactive) | 3.03 µM (inactive) | 11.1 µM (inactive) | 3.63 µM (inactive) | 2.79 µM (inactive) | > 19.8 µM (inactive) | 3.57 µM (inactive) | 5.77 µM (inactive) | 4.89 µM (inactive) | > 34 µM (inactive) | 12 µM (inactive) | 3.89 µM (inactive) | 2.94 µM (inactive) | 5.26 µM (inactive) | 4.98 µM (inactive) | 4.69 µM (inactive)
Cc1ccc(S(=O)(=O)NC(=O)C2=C(c3ccccc3)[N-]N(C)c3nc4cccc[n+]4nc32)cc1 | > 100 µM (inactive) | > 100 µM (inactive) | > 100 µM (inactive) | > 100 µM (inactive) | > 100 µM (inactive) | 51.4 µM (inactive) | 96.4 µM (inactive) | 49.9 µM (inactive) | > 100 µM (inactive) | > 100 µM (inactive) |  | > 100 µM (inactive) | > 100 µM (inactive) | 51.6 µM (inactive) |  | > 100 µM (inactive) | > 100 µM (inactive) | 55.1 µM (inactive) | > 100 µM (inactive) | > 100 µM (inactive)
CCN(CC)CCO/N=C1\CC[C@H]2[C@@H]3CCc4cc(OC)ccc4[C@H]3CC[C@]12C | 3.57 µM (inactive) | 1.44 µM (inactive) | 0.885 µM (active) | 0.53 µM (active) | 2.31 µM (inactive) | 3.26 µM (inactive) | 0.789 µM (active) | 3.66 µM (inactive) | 5.09 µM (inactive) | 5.41 µM (inactive) | 4.25 µM (inactive) | 9.08 µM (inactive) | 3.17 µM (inactive) | 2.6 µM (inactive) |  | 8.38 µM (inactive) | 1.49 µM (inactive) | 2.79 µM (inactive) | 0.82 µM (active) | 2.3 µM (inactive)
Cc1nc(C)c(C(=O)NNC(=O)Cc2ccccc2)cc1C(=O)NNC(=O)Cc1ccccc1 | > 100 µM (inactive) | > 100 µM (inactive) | > 100 µM (inactive) | > 100 µM (inactive) | > 100 µM (inactive) | > 100 µM (inactive) | > 100 µM (inactive) | > 100 µM (inactive) | > 100 µM (inactive) | > 100 µM (inactive) | > 100 µM (inactive) | > 100 µM (inactive) | > 100 µM (inactive) | > 100 µM (inactive) | > 100 µM (inactive) | > 100 µM (inactive) |  | > 100 µM (inactive) | > 100 µM (inactive) | > 100 µM (inactive)
[N-]=[N+]=NC1(c2ccccc2)C(=O)c2cccc3c4ccccc4n(c23)C1=O (stereo not drawn) | > 100 µM (inactive) | 84.3 µM (inactive) | < 0.01 µM (active) | 18.4 µM (inactive) | > 100 µM (inactive) | > 100 µM (inactive) | > 100 µM (inactive) | 54 µM (inactive) | 52.2 µM (inactive) | 33.5 µM (inactive) | 46.3 µM (inactive) | > 100 µM (inactive) | > 100 µM (inactive) | > 100 µM (inactive) | > 100 µM (inactive) | > 100 µM (inactive) |  | > 100 µM (inactive) | 50 µM (inactive) | > 100 µM (inactive)
COc1cc(/C=C\C(=O)O)ccc1OCc1ccccc1 | > 100 µM (inactive) | > 100 µM (inactive) | > 100 µM (inactive) |  | 49.3 µM (inactive) | > 100 µM (inactive) | > 100 µM (inactive) | > 100 µM (inactive) | > 100 µM (inactive) | > 100 µM (inactive) | > 100 µM (inactive) |  | > 100 µM (inactive) | > 100 µM (inactive) | > 100 µM (inactive) | > 100 µM (inactive) | > 100 µM (inactive) | > 100 µM (inactive) | > 100 µM (inactive) | > 100 µM (inactive)
CCn1c2ccccc2c2cc(/N=N\c3ccc(C#N)cc3)ccc21 | > 100 µM (inactive) | 50.4 µM (inactive) | 32.1 µM (inactive) | 26.5 µM (inactive) | 42.1 µM (inactive) | 32.5 µM (inactive) | 23.7 µM (inactive) | 4.41 µM (inactive) | 23.5 µM (inactive) |  | > 100 µM (inactive) | 98.6 µM (inactive) | 31.6 µM (inactive) | 39.3 µM (inactive) | 40.8 µM (inactive) | 19.4 µM (inactive) |  | 50.6 µM (inactive) | 61.4 µM (inactive) | > 100 µM (inactive)
COc1ccc2cc(C(C)C(=O)N3CCOC3=O)ccc2c1 (stereo not drawn) | > 100 µM (inactive) | > 100 µM (inactive) | > 100 µM (inactive) | > 100 µM (inactive) | > 100 µM (inactive) | > 100 µM (inactive) | > 100 µM (inactive) | > 100 µM (inactive) | > 100 µM (inactive) | > 100 µM (inactive) | > 100 µM (inactive) | > 100 µM (inactive) | > 100 µM (inactive) | > 100 µM (inactive) | > 100 µM (inactive) | > 100 µM (inactive) | > 100 µM (inactive) | > 100 µM (inactive) | > 100 µM (inactive) | 
O=C1/C(=C/c2ccc(Cl)cc2)Oc2cc(O)ccc21 [6-HYDROXY-4'-CHLORO AURONE] | 28.1 µM (inactive) | 30.5 µM (inactive) | 18.1 µM (inactive) |  | 14.7 µM (inactive) | 33.4 µM (inactive) |  | 34 µM (inactive) | 36.2 µM (inactive) | 24.9 µM (inactive) | 34.7 µM (inactive) | 47.5 µM (inactive) |  | 31.9 µM (inactive) | 30.6 µM (inactive) | 26.6 µM (inactive) | 20.2 µM (inactive) | 37.1 µM (inactive) | 34.2 µM (inactive) | 
